Assay results as given in patent US5506102A (priority 1993, dated 1996).

Target: T1, PR-A (Homo sapiens, UniProt P06401)
T1 sequence (P06401 165-933): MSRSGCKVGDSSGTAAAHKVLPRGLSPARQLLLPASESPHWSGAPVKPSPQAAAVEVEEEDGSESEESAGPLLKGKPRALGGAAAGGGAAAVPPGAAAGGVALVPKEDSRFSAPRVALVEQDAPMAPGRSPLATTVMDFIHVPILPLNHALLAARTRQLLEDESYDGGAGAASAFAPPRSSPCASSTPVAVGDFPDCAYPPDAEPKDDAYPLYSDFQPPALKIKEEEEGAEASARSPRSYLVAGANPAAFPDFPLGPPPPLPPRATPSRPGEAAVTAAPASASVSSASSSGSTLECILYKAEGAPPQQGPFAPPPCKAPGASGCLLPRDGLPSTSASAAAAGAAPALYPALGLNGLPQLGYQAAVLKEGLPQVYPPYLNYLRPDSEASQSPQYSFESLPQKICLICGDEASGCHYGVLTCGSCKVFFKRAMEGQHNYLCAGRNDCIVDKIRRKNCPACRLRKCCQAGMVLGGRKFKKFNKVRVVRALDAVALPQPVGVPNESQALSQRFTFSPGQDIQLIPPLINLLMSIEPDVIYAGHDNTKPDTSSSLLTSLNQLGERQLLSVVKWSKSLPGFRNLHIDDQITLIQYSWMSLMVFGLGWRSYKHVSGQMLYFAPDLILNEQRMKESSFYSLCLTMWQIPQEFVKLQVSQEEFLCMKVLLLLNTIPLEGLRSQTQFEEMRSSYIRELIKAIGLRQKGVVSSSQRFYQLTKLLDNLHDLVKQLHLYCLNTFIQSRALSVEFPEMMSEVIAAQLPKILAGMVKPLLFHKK
Assay: PR-A regulation of TAT promoter
Assay type: cell-based
Set-up: TAT2950-LUC in HeLa, PRE2 tk-LUC in CV-1/HepG2
Conditions: data not shown
Procedure: FIGS. 4A-4B are a series of graphs showing CV-1 ([…]) or HepG2 (FIG. 4B) cells that were transiently transfected with either […] of phPR-B or phPR-A alone, or phPR-B in the presence of increasing concentrations of phPR-A, together with 5 µg/ml of the PRE2 tk-LUC reporter and 5 µg/ml of pCH110 as an internal control. HeLa cells (FIG. 4C) were transfected with either phPR-B or phPR-A together with 5 µg/ml of the pTAT2950 reporter and 5 µg/ml of pCH110 as an internal control. […] The relative luciferase activity is calculated by dividing the normalized luciferase value at a given point by that obtained in the absence of transfected receptor or ligand. The data shown represent the mean +/- average deviation from the mean of triplicate estimations;
The 2.9 Kb fragment resulting from the digestion of the pTAT-CAT plasmid, and the 6.7 Kb fragment, containing the luciferase gene and the backbone resulting from MMTV-LUC digestion products, were ligated to create the plasmid TAT2950-LUC.
Cells were seeded in 12-well, 96-well or 10 cm tissue culture plates. […] 20 μg of DNA/ml of transfection buffer were used in each transfection reaction. […]

## CC(=O)[C@H]1CC[C@H]2[C@@H]3CCC4=CC(=O)CC[C@]4(C)[C@H]3CC[C@]12C [progesterone]
CV-1, PR-A
  TAT promoter response: unresponsive to either receptor subtype
HepG2, phPR-A
  TAT promoter response to progesterone: responded to progesterone
